Series [1] concerns PC12 cells that express mutant G93A SOD1 as a YFP fusion protein. The experiment in a line: high throughput cytotoxicity protection assay. The protocol:
This idea was tested by examining the sensitivity of PC12 cells to SOD1 aggregates in the presence and absence of proteasome inhibitor MG132. PC12 cells expressing no SOD1, wild type SOD1, G85R SOD1 or G93A SOD1 were grown with or without MG132 (FIG. 1). […] The ability of protein aggregates to induce cell death was examined by treating G93A SOD1-expressing cells with MG132 for 24 h, removing the MG132 by washing and assaying cell viability after another 24 h.
PC12 cells expressing G93A SOD1 were treated with 100 nM MG132 with or without co-treatment with geldanamycin or radicicol.

The subject of series [2] is PC12 cells expressing G85R SOD1. The experiment in a line: mutant SOD1 direct protein aggregation assay. In kind it is cell-based. The protocol: 4) Compounds could act directly on SOD1 in a manner that prevents mutant SOD1 aggregation. These possibilities were tested using an assay that directly measures protein aggregation. In addition, unlike the high throughput cytotoxicity protection assay, the protein aggregation assay is based on G85R SOD1; this broadens the scope of the screening strategy, and should eliminate compounds with highly specific activity (i.e., G93A SOD1 limited) against protein aggregation.
The identification of a positive control is a crucial step in assay development. Thus, PC12 cells expressing G85R or G93A mutant SOD1 were treated with MG132 to induce protein aggregation, and then co-treated with candidate chemical suppressors of protein aggregation.
To allow this assay to be used in a high-throughput manner, a Cellomics Arrayscan® high content microscopy system was used for screening and quantification. […] Because the most robust high content assays measure events on a per cell basis, it was necessary to select a fluorescent stain that marks whole cells to be used with a compatible stain that marks intracellular structures.

Series [3] is described as follows: cellular toxicity. In kind it is cell-based. The text has this:
Butaclamol is a diasteriomer and the two different isomeric forms can be physically separated.

Series [4] concerns G93A SOD1 transgenic mice. Briefly: transgenic G93A SOD1 ALS mouse model (open field, survival, neuropathology). In kind it is in vivo. The conditions noted are these: for Average life span: untreated 125.1±3.8. The source says:
Subjects. […] The development of transgenic mice expressing G93A human SOD1 as a mouse model for the human disease has been regarded as a major breakthrough for development of ALS therapeutics. G93A SOD1 transgenic mice develop progressive hind limb weakness, muscle wasting, and neuropathological sequelae similar to those observed in patients with both sporadic and familial ALS. […] In addition, motor performance deteriorates as the disease progresses. The G93A SOD1 mouse model has played a prominent role in studying disease progression and especially for testing potential therapeutic agents, the latter in part because these animals have a shortened life span of approximately 126 days. In the present study, G93A SOD1 mice and littermate controls are bred from existing colonies at the Bedford VA Medical Hospital. The male G93A SOD1 mice are mated with B6SJL females and the offspring are genotyped by PCR using tail DNA. The number of SOD1 transgenes are assessed by PCR to ensure that transgene copy number remains constant. Mice are housed in micro-isolator cages in complete barrier facilities, and all studies are performed in these facilities. A 12 hour light-dark cycle is maintained and animals are given free access to food and water. Control and transgenic mice of the same age (±2 days) and from the same ‘f generation will be selected from multiple litters to form experimental cohorts (n=20 per group). Standardized criteria for age and parentage are used for placing individual mice into experimental groups/cohorts. Wild type mice are used for initial toxicity, tolerability, and pharmacokinetic studies and ALS mice are used for one-month tolerability studies.
Tolerability, Dosing, and Pharmacokinetics. The tolerable dose range and LD50 for butaclamol was determined in wild type mice by increasing the dose b.i.d. one-fold each injection. The route of administration was via i.p. administration, which was previously reported to produce robust effects in behavioral pharmacology studies, and starting dose range was guided by these prior studies (Lippmann et al., Life Sciences 16, 213, (1975); Humber et al., Mol. Pharmacol. 11, 833, (1975); Voith and Herr, Psychopharmacologia 42, 11, (1975)). One goal was to select a range of doses for the efficacy study starting ten fold below the maximum tolerated dose. Initial pharmacokinetic (pK) studies were conducted by giving animals a single dose, sacrificing them after 30 min, 1 h, 2 h, 4 h, 6 h, and 12 h, and dissecting brains and spinal cords and determining drug concentration in the target tissue. Drug steady-state level was determined in animals that had been dosed for 1 week prior to sacrifice. The range of dosing levels of 0.01, 0.1, and 1 mg/kg once a day were administered throughout the lives of the G93A mice.
Behavioral pharmacology. Behavioral testing for the transgenic G93A SOD1 mice were performed during the light phase of the diurnal cycle since these mice are sufficiently active during that time. Measurements were made for 30 minutes after 10 minutes of acclimation to the box (Opto-Varimex Unit, Columbus Instruments, Columbus, Ohio, USA). Counts of horizontal and vertical motion activity were monitored and quantitative analysis of locomotor activity (resting and ambulatory times), were assessed. The open field box was cleaned before testing each mouse. Each 30 minutes of testing was analyzed as three periods of 10 minute intervals to study the influence of novelty and measured behavior. Mice were coded and investigators were blinded to the genotype and analysis. Testing started on week 4 and performed every other week until the mice could no longer participate.
Efficacy studies. Efficacy was measured using endpoints that clearly indicate neuroprotective function. These include amelioration of degenerative changes in the spinal cord, improved motor function, and prolonged survival. […]

Series [5] deals with G93A mice. The experiment in a line: climbing assay for extrapyramidal effects. It is filed as in vivo, mouse. The conditions noted are these: 0.01, 0.1, 1 mg/kg. The text has this:
A climbing assay was used to test for extrapyramidal effects.

The test system of series [6] is healthy volunteers and chronic schizophrenic patients. The conditions noted are these: cited from earlier work.
For series [7], the system named is [3H] dopamine binding sites. Particulars: cited from earlier work.
The test system of series [8] is [3H] haloperidol binding sites. Particulars: cited from earlier work.
For series [9] the following is noted: high doses; cited from earlier work.
Series [10] relates to rats with unilateral lesions in the substantia nigra. The conditions noted are these: at 100 to 500 times larger doses than the (+) enantiomer; cited from earlier work.

The values below come from patent US20120035203A1, “BUTACLAMOL FOR THE TREATMENT OF AMYOTROPHIC LATERAL SCLEROSIS” (CAMBRIA PHARMACEUTICALS, INC., priority 2009, published 2012).

“Also recorded” adds a separate entry of the source.

Consider `CC(C)(C)[C@]1(O)CCN2C[C@H]3c4ccccc4CCc4cccc(c43)[C@@H]2C1` [Butaclamol], for which the “activity in the protection assay” value in series [1] is “showed activity”. In series [1] (Rattus norvegicus, PC-12, read-out: Protection ED50), the EC50 is ~0.84 µM. In addition, the “Protection Efficacy Conc.” value in series [1] (concentration at which the % viability is given) was found to be 15 µM. Moreover, the “Activity in Protection Assay” value in [1] (neuroleptic agent screening) is reported as “Active”. Moreover, the “Protection Efficacy % Viability” value in series [1] (rat) is on record as 80%. Also, in series [2], the Aggregation result is “Inactive”. In addition, the “activity in the aggregation assay” value in series [2] is “inactive”. In addition, in series [3], the IC50 is < 25 µM. Moreover, the “gross lumbar spinal cord (atrophy)” value in series [4] (0.1 mg/kg, 120 days, WT 3.18±0.24×10^6, untreated 2.25±0.49×10^6, P<0.01) was 2.97±0.31×10^6 μm^3. Also, the “ventral horn of the lumbar spinal cord (atrophy)” value in series [4] (0.1 mg/kg, 120 days, WT 7.29±0.41×10^5, untreated 5.28±0.63×10^5, P<0.05) is reported as 6.55±0.37×10^5 μm. The “ventral horn neuronal count” value in series [4] (0.1 mg/kg, 120 days, WT 98.1±12.9, untreated 22.4±15.8, P<0.01) was found to be 57.3±18.2. The “reactive astrogliosis (GFAP expression, lumbar spinal cord)” value in series [4] (butaclamol treatment) is on record as “ameliorated; also recorded: markedly attenuates reactive astrogliosis”. Also, in [4] (high dose 1 mg/kg, throughout treatment, vs wild type or untreated G93A), the “open field motor activity” value is “significantly reduced motor activity outcome measures”. Moreover, the Average life span in series [4] (high dose (1 mg/kg once a day, i.p.)) was 123.7 ± 6.2 days; in series [4] (low dose (0.01 mg/kg once a day, i.p.)), 129.3 ± 4.1 days; in [4] (medium dose (0.1 mg/kg once a day, i.p.)), 141.0 ± 5.3 days. In series [4] (low dose 0.01 mg/kg, 6 week to 12-13 week), the “open field behavior (distance traveled, resting time, ambulatory count, ambulatory time)” value is “no significant effect”. Also, the open field behavior entry in [4] (medium dose 0.1 mg/kg, 6 weeks to 12-13 weeks, 0.1 mg/kg) is “not significantly different from wild type mice”. Also, in [4] (medium dose (0.1 mg/kg)), the “extended survival as compared with untreated G93A mice” value is 12.7%. The extrapyramidal effects result in series [5] is on record as “No significant extrapyramidal effects”. Moreover, in series [6] (healthy volunteers, single and repeated doses up to 32 mg/day), the “limiting effects in Phase I” value was “sedation and extrapyramidal effects”. Also, the “dose producing extrapyramidal effects in patients” value in [6] (human, in vivo) is on record as ≥ 10 mg/day. In addition, the “neuroleptic activity in chronic schizophrenic patients” value in series [6] (long-term, 50 mg/day) is “active neuroleptic agent”.

Regarding (+) butaclamol, the “activity in the protection assay” value in series [1] is “showed activity”. For the same compound, the “times more potent than the (−) isomer” value is “about one hundred” in series [7] and “one thousand” in series [8]. Besides, the “effect on epinephrine-induced mortality” value in series [9] is “antagonized epinephrine-induced mortality”.

For the compound (−) butaclamol, the “activity in the protection assay” value in series [1] is recorded as “only the eutomer (+butaclamol) showed activity”. Also, the behavioral activity entry in series [10] is “devoid of behavioral activity”. For the same compound, the “effect on epinephrine-induced mortality” value in series [9] is reported as “devoid of any such activity”.

One may read the IC50 as the concentration that gives 50% inhibition. A lower IC50 goes with greater potency in that assay.
